# Test results taken from ChEMBL document CHEMBL2016457, “Discovery of potent and orally bioavailable 17β-hydroxysteroid dehydrogenase type 3 inhibitors” (Bioorg Med Chem, 2012).
# Activity calls are given as the source filed them. The rule behind the calls is not given here.
# What was measured:
# [1] = biological target: T1, Glucocorticoid receptor (Homo sapiens) (UniProt P04150); assay: Agonist activity at human Glucocorticoid receptor expressed in human HeLa cells assessed as DHT-induced response after 40 hrs by luciferase/beta-galactosidase-based reporter gene assay; format: functional, cell-based
# T1 sequence (whole entry): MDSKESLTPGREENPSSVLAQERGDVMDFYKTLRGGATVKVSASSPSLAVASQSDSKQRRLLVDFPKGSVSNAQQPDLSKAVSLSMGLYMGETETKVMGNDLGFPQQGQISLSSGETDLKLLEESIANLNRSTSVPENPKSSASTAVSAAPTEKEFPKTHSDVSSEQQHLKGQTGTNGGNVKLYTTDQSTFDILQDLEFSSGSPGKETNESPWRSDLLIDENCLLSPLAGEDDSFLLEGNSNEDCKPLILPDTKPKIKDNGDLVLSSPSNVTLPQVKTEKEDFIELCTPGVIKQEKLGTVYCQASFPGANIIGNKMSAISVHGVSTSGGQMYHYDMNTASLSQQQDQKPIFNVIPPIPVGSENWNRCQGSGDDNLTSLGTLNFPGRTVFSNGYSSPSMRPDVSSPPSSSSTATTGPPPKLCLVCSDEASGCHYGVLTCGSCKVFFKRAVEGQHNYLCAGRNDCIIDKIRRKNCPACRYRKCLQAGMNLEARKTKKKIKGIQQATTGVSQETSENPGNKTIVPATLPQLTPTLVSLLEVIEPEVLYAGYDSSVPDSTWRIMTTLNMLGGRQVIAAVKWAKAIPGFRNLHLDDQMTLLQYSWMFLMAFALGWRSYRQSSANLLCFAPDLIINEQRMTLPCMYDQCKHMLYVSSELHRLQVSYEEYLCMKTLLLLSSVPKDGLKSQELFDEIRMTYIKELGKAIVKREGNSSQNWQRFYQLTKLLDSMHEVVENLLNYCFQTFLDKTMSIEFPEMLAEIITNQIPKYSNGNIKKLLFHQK
# [2] = biological target: T2, Estrogen receptor (Homo sapiens) (UniProt P03372); assay: Agonist activity at human Estrogen receptor ERalpha expressed in human HeLa cells assessed as DHT-induced response after 40 hrs by luciferase/beta-galactosidase-based reporter gene assay; format: functional, cell-based
# T2 sequence (whole entry): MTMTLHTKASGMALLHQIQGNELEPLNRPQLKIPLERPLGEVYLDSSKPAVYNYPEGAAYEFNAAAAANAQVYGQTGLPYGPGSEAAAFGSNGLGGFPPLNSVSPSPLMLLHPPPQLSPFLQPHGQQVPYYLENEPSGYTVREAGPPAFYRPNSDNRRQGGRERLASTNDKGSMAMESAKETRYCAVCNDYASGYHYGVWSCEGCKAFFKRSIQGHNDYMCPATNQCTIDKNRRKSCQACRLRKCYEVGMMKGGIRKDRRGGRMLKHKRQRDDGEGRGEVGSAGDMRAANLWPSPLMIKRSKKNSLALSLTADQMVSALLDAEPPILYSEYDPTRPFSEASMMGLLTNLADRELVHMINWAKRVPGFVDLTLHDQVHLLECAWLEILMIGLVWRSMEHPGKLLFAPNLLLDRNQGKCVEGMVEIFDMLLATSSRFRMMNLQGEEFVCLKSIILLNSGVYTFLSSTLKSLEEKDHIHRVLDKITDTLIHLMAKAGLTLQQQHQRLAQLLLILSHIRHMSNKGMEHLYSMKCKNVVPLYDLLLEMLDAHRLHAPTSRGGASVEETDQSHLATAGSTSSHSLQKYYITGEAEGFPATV
# [3] = biological target: T3, 17-beta-hydroxysteroid dehydrogenase type 1 (Homo sapiens) (UniProt P14061); assay: Inhibition of human recombinant 17-beta-HSD1 expressed in human HeLa cells using estrone as substrate preincubated for 30 mins prior substrate addition measured after 120 mins by spectrophotometry; format: cell-based
# T3 sequence (whole entry): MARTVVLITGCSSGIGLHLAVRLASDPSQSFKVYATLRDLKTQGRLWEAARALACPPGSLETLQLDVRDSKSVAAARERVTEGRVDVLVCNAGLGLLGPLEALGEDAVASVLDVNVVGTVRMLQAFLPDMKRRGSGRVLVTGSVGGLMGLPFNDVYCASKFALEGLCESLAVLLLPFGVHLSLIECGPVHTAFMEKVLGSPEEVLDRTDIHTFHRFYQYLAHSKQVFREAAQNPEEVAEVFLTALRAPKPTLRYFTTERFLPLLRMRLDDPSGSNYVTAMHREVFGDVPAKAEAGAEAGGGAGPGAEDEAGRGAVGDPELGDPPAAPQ
# [4] = biological target: T4, 17-beta-hydroxysteroid dehydrogenase type 3 (Homo sapiens, UniProt P37058)
# T4 sequence (P37058 whole entry): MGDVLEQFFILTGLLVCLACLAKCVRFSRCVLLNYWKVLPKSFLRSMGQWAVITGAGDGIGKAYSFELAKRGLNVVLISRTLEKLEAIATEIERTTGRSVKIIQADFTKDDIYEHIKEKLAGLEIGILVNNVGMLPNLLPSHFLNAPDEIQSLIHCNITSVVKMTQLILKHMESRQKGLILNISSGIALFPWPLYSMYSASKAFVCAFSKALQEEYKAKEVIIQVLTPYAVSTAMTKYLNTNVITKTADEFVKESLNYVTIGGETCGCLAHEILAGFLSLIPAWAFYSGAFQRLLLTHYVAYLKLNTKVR
# Description: Inhibition of human recombinant 17-beta-HSD3 expressed in human HeLa cells using androstenedione as substrate preincubated for 30 mins prior substrate addition measured after 120 mins by spectrophotometry
# [5] = biological target: T5, Androgen receptor (Homo sapiens) (UniProt P10275); assay: Agonist activity at human androgen receptor expressed in human HeLa cells assessed as DHT-induced response after 40 hrs by luciferase/beta-galactosidase-based reporter gene assay; format: functional, cell-based
# T5 sequence (whole entry): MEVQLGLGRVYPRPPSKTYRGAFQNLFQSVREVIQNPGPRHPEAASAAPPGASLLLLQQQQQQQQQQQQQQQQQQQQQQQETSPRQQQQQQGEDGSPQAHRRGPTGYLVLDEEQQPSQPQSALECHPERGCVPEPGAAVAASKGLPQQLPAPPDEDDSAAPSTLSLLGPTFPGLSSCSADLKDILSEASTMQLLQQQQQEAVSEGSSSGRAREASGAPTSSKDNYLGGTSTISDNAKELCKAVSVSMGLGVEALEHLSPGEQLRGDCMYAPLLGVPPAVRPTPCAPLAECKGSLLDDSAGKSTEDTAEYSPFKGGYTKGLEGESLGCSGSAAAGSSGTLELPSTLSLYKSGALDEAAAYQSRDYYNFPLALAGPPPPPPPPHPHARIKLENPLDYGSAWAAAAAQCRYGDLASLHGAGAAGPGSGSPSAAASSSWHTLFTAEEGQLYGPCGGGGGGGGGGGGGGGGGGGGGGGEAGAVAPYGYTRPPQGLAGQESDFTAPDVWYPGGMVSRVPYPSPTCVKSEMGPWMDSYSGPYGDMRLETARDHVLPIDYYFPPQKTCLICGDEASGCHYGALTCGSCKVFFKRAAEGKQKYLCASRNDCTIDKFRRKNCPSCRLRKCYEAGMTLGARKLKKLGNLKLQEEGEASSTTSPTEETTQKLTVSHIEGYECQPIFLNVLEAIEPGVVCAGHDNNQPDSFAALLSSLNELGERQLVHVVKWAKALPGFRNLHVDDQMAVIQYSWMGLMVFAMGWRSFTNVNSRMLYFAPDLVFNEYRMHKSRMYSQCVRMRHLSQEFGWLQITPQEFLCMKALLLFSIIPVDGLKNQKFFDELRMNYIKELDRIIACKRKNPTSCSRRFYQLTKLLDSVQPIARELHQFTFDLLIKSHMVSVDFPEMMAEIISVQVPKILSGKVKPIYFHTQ
# [6] = biological target: T5, Androgen receptor (Homo sapiens); assay: Antagonist activity at human androgen receptor expressed in human HeLa cells assessed as inhibition of DHT-induced response after 40 hrs by luciferase/beta-galactosidase-based reporter gene assay; format: functional, cell-based
# [7] = biological target: T2, Estrogen receptor (Homo sapiens); assay: Antagonist activity at human ERalpha receptor expressed in human HeLa cells assessed as inhibition of DHT-induced response after 40 hrs by luciferase/beta-galactosidase-based reporter gene assay; format: functional, cell-based
# [8] = biological target: T6, 17-beta-hydroxysteroid dehydrogenase type 2 (Homo sapiens) (UniProt P37059); assay: Inhibition of human recombinant 17-beta-HSD2 expressed in human HeLa cells using estradiol as substrate preincubated for 30 mins prior substrate addition measured after 120 mins by spectrophotometry; format: cell-based
# T6 sequence (whole entry): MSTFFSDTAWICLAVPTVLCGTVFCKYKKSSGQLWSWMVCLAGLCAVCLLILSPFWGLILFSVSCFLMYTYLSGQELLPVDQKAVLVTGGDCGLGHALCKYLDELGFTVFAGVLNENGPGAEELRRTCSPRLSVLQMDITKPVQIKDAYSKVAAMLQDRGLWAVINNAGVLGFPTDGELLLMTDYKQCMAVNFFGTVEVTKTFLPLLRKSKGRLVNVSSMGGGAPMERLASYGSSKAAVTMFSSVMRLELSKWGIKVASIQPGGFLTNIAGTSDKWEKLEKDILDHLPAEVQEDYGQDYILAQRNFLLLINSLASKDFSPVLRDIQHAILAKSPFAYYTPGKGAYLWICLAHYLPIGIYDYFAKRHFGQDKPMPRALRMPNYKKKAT
# [9] = biological target: T1, Glucocorticoid receptor (Homo sapiens); assay: Antagonist activity at human GR receptor expressed in human HeLa cells assessed as inhibition of DHT-induced response after 40 hrs by luciferase/beta-galactosidase-based reporter gene assay; format: functional, cell-based
SMILES,Activity [1],Activity [2],inhibition [3],IC50 [4],Activity [5],Activity [6],Activity [7],inhibition [8],Activity [9]
COc1cccc(N2C(=O)/C(=C/c3ccc(O)c(Br)c3)OC2=S)c1,inactive,inactive,inactive,7 nM,inactive,inactive,inactive,inactive,inactive
COc1ccc(N2C(=O)/C(=C(/C)c3ccc(O)c(Br)c3)SC2=S)cc1,inactive,inactive,inactive,90 nM,inactive,inactive,inactive,inactive,inactive
COc1ccccc1N1C(=O)/C(=C/c2ccc(O)c(Br)c2)OC1=S,inactive,inactive,inactive,60 nM,inactive,inactive,inactive,inactive,inactive
O=C1/C(=C/c2ccc(O)c(Br)c2)OC(=S)N1c1ccc2c(c1)OCO2,inactive,inactive,inactive,12 nM,inactive,inactive,inactive,inactive,inactive
O=C1/C(=C/c2ccc(O)c(Br)c2)SC(=S)N1C1CCOCC1,inactive,inactive,inactive,75 nM,inactive,inactive,inactive,inactive,inactive
COC(=O)c1ccc(N2C(=O)O/C(=C\c3ccc(O)c(Br)c3)C2=O)cc1,inactive,inactive,inactive,24 nM,inactive,inactive,inactive,inactive,inactive

# These reach a lower IC50 [4]. Values come first.
Activity [1],Activity [2],inhibition [3],IC50 [4],Activity [5],Activity [6],Activity [7],inhibition [8],Activity [9],SMILES
inactive,inactive,inactive,5 nM,inactive,inactive,inactive,inactive,inactive,COc1ccc(N2C(=O)/C(=C/c3cc(F)c(O)c(F)c3)OC2=S)cc1
inactive,inactive,inactive,4 nM,inactive,inactive,inactive,inactive,inactive,COc1ccc(N2C(=O)O/C(=C\c3ccc(O)c(Br)c3)C2=O)cn1
inactive,inactive,inactive,1 nM,inactive,inactive,inactive,inactive,inactive,COc1ccc(N2C(=O)/C(=C/c3cc(F)c(O)c(Cl)c3)OC2=S)cc1
inactive,inactive,inactive,2 nM,inactive,inactive,inactive,inactive,inactive,O=C1/C(=C/c2ccc(O)c(Br)c2)OC(=S)N1c1ccc(F)cc1
inactive,inactive,inactive,3 nM,inactive,inactive,inactive,inactive,inactive,O=C1/C(=C/c2ccc(O)c(Br)c2)OC(=S)N1c1ccc(C(F)(F)F)cc1
